PMC9395504 (Investigational New Drugs, 2022)

Assay: Safety: adverse events by NCI-CTCAE v4.0, phase 1 study Part 1
Type: in vivo, human
Protocol: We defined the dose-limiting toxicity (DLT) period as the first 28 days of each dose-escalation cohort’s treatment cycle (DLT window). […] Non-hematologic DLTs included grade ≥3 nausea, vomiting, or diarrhea enduring >48 hours despite standard medical management, grade 3 fatigue persisting >7 days or grade 4 fatigue, any grade ≥3 metabolic laboratory abnormalities that are not controlled within 48 hours by standard medical management.

[1] = All patients, N=31, attributed to AMG 232 only
[2] = All patients, N=31, attributed to any drug

Compound: CC(C)[C@@H](CS(=O)(=O)C(C)C)N1C(=O)[C@@](C)(CC(=O)O)C[C@H](c2cccc(Cl)c2)[C@H]1c1ccc(Cl)cc1 [AMG 232]
- Share of treatment-emergent AEs attributable to AMG 232 (240 of 614 AEs, in 30 subjects): 39%
- AEs Grade 1 (All patients, N=31): 31 (100) N (%)
- AEs Grade 2 (All patients, N=31): 30 (97) N (%)
- AEs Grade 3 (All patients, N=31): 25 (81) N (%)
- AEs Grade 4 (All patients, N=31): 2 (6) N (%)
- AEs leading to AMG 232 d/c (All patients, N=31): 7 (23) N (%)
- AEs leading to dabraf d/c (All patients, N=31): 2 (6) N (%)
- Serious AE Adrenal insufficiency (All patients, N=31): 2 (6) N (%)
- Serious AE Anemia (All patients, N=31): 1 (3) N (%)
- Serious AE Cellulitis (All patients, N=31): 2 (6) N (%)
- Serious AE Dehydration (All patients, N=31): 3 (10) N (%)
- Serious AE Diarrhea (All patients, N=31): 4 (13) N (%)
- Serious AE Fatigue (All patients, N=31): 1 (3) N (%)
- Serious AE Hypotension (All patients, N=31): 1 (3) N (%)
- Serious AE Nausea (All patients, N=31): 5 (16) N (%)
- Serious AE Peripheral Edema (All patients, N=31): 1 (3) N (%)
- Serious AE Pulmonary embolism (All patients, N=31): 5 (16) N (%)
- Serious AE Pyrexia (All patients, N=31): 5 (16) N (%)
- Serious AE Seizure (All patients, N=31): 3 (10) N (%)
- Serious AE Thrombocytopenia (All patients, N=31): 1 (3) N (%)
- Serious AE Vomiting (All patients, N=31): 5 (16) N (%)
- AE AST increased [1]: 3 (10) N (%)
- AE Abdominal pain [1]: 5 (16) N (%)
- AE Adrenal insufficiency [1]: 0 N (%)
- AE Anemia [1]: 5 (16) N (%)
- AE Cellulitis [1]: 0 N (%)
- AE Chills [1]: 2 (6) N (%)
- AE Cough [1]: 2 (6) N (%)
- AE Decreased appetite [1]: 13 (42) N (%)
- AE Dehydration [1]: 1 (3) N (%)
- AE Dermatitis acneiform [1]: 3 (10) N (%)
- AE Diarrhea [1]: 24 (77) N (%)
- AE Dizziness [1]: 3 (10) N (%)
- AE Dry mouth [1]: 3 (10) N (%)
- AE Dysgeusia [1]: 4 (13) N (%)
- AE Dyspepsia [1]: 3 (10) N (%)
- AE Fatigue [1]: 23 (74) N (%)
- AE Headache [1]: 3 (10) N (%)
- AE Hypertension [1]: 2 (6) N (%)
- AE Hypotension [1]: 1 (3) N (%)
- AE Lipase increased [1]: 4 (13) N (%)
- AE Malaise [1]: 4 (13) N (%)
- AE Nausea [1]: 27 (87) N (%)
- AE Neutropenia [1]: 3 (10) N (%)
- AE Peripheral Edema [1]: 1 (3) N (%)
- AE Pruritus [1]: 0 N (%)
- AE Pulmonary embolism [1]: 2 (6) N (%)
- AE Pyrexia [1]: 2 (6) N (%)
- AE Rash [1]: 2 (6) N (%)
- AE Seizure [1]: 0 N (%)
- AE Thrombocytopenia [1]: 3 (10) N (%)
- AE Vomiting [1]: 21 (68) N (%)
- AE AST increased [2]: 6 (19) N (%)
- AE Abdominal pain [2]: 6 (19) N (%)
- AE Adrenal insufficiency [2]: 2 (6) N (%)
- AE Anemia [2]: 9 (29) N (%)
- AE Cellulitis [2]: 2 (6) N (%)
- AE Chills [2]: 8 (26) N (%)
- AE Cough [2]: 8 (26) N (%)
- AE Decreased appetite [2]: 16 (52) N (%)
- AE Dehydration [2]: 9 (29) N (%)
- AE Dermatitis acneiform [2]: 14 (45) N (%)
- AE Diarrhea [2]: 27 (87) N (%)
- AE Dizziness [2]: 5 (16) N (%)
- AE Dry mouth [2]: 5 (16) N (%)
- AE Dysgeusia [2]: 6 (19) N (%)
- AE Dyspepsia [2]: 4 (13) N (%)
- AE Fatigue [2]: 25 (81) N (%)
- AE Headache [2]: 15 (48) N (%)
- AE Hypertension [2]: 8 (26) N (%)
- AE Hypotension [2]: 8 (26) N (%)
- AE Lipase increased [2]: 5 (16) N (%)
- AE Malaise [2]: 4 (13) N (%)
- AE Nausea [2]: 28 (90) N (%)
- AE Neutropenia [2]: 5 (16) N (%)
- AE Peripheral Edema [2]: 13 (42) N (%)
- AE Pruritus [2]: 11 (35) N (%)
- AE Pulmonary embolism [2]: 5 (16) N (%)
- AE Pyrexia [2]: 11 (35) N (%)
- AE Rash [2]: 7 (23) N (%)
- AE Seizure [2]: 3 (10) N (%)
- AE Thrombocytopenia [2]: 7 (23) N (%)
- AE Vomiting [2]: 22 (71) N (%)
- AMG 232-related AE abdominal pain, patients (all 31 patients): 16%
- AMG 232-related AE anemia, patients (all 31 patients): 16%
- AMG 232-related AE decreased appetite, patients (all 31 patients): 42%
- AMG 232-related AE diarrhea, patients (all 31 patients): 77%
- AMG 232-related AE dysgeusia, patients (all 31 patients): 13%
- AMG 232-related AE fatigue, patients (all 31 patients): 74%
- AMG 232-related AE increased lipase, patients (all 31 patients): 13%
- AMG 232-related AE malaise, patients (all 31 patients): 13%
- AMG 232-related AE nausea, patients (all 31 patients): 87%
- AMG 232-related AE vomiting, patients (all 31 patients): 68%
- Patients with serious AMG 232-related AEs (all 31 patients): 8 patients
- Serious AMG 232-related AE diarrhea, patients (all 31 patients): 10%
- Serious AMG 232-related AE nausea, patients (all 31 patients): 13%
- Serious AMG 232-related AE pulmonary embolism, patients (all 31 patients): 6.5%
- Serious AMG 232-related AE vomiting, patients (all 31 patients): 10%
- SAE diarrhea, patients (all 31 patients, AMG 232 + T±D): 13%
- SAE nausea, patients (all 31 patients, AMG 232 + T±D): 16%
- SAE vomiting, patients (all 31 patients, AMG 232 + T±D): 16%
- Treatment-emergent AE acneiform dermatitis, patients (all 31 patients, AMG 232 + T±D): 45%
- Treatment-emergent AE decreased appetite, patients (all 31 patients, AMG 232 + T±D): 52%
- Treatment-emergent AE diarrhea, patients (all 31 patients, AMG 232 + T±D): 87%
- Treatment-emergent AE fatigue, patients (all 31 patients, AMG 232 + T±D): 81%
- Treatment-emergent AE headache, patients (all 31 patients, AMG 232 + T±D): 48%
- Treatment-emergent AE nausea, patients (all 31 patients, AMG 232 + T±D): 90%
- Treatment-emergent AE peripheral edema, patients (all 31 patients, AMG 232 + T±D): 42%
- Treatment-emergent AE pruritus, patients (all 31 patients, AMG 232 + T±D): 35.5%
- Treatment-emergent AE pyrexia, patients (all 31 patients, AMG 232 + T±D): 35.5%
- Treatment-emergent AE vomiting, patients (all 31 patients, AMG 232 + T±D): 71%
- Patients with serious AEs (SAEs) (all 31 patients, AMG 232 + T±D, 24 patients): 77%
- Patients withdrawn/discontinued from AMG 232 due to AEs (all 31 patients, seven patients): 23%
